From ChEMBL document CHEMBL1151149, “Antineoplastic agents, 107. Isolation of acteoside and isoacteoside from Castilleja linariaefolia” (1990) come the findings set out here.

The experiment concerns P388. Briefly: Cytotoxicity against mouse P388 cells. Type of experiment: functional. As to conditions: read-out: ED50 (the source's name).

Converted amounts (≈) assume the structure as drawn.

On to `C[C@@H]1O[C@@H](O[C@@H]2[C@@H](O)[C@H](OCCc3ccc(O)c(O)c3)O[C@H](COC(=O)/C=C/c3ccc(O)c(O)c3)[C@H]2O)[C@H](O)[C@H](O)[C@H]1O` [ISOACTEOSIDE], for which the EC50 is 10 µg/mL (≈ 16 µM).

As to `C[C@@H]1O[C@@H](O[C@@H]2[C@@H](O)[C@H](OCCc3ccc(O)c(O)c3)O[C@H](CO)[C@H]2OC(=O)/C=C/c2ccc(O)c(O)c2)[C@H](O)[C@H](O)[C@H]1O` [ACETOSIDE], the EC50 was determined as 2.6 µg/mL (≈ 4.16 µM).
